In PubChem BioAssay AID2060341 (Molecular Pharmacology Branch, DTP, NCI, 2025):
Where “and” joins values, the source holds several entries; their conditions need not be identical. Equal values may be shown once.

System: 327498-153-R-J2-PDC multicell spheroid viability
Assay: Anticancer human tumor 327498-153-R-J2-PDC patient-derived uterine carcinosarcoma cell line growth inhibition [IpAb]
Conditions: for viability, T/C: stronger effect = lower value
Description: Combinatorial screen of targeted agents with ipatasertib and abemaciclib in multi-cell type tumor spheroids
A high-throughput screen of multi-cell type tumor spheroids was designed to identify active combinations of targeted small molecules and ipatasertib or abemaciclib. Complex spheroids include a stromal component modeled by human endothelial cells (HUVEC) and fibroblasts modeled by human mesenchymal stem cells (MSCs). The concentration ranges selected for each drug and investigational agent were based upon clinically achievable concentrations if the clinical Cmax of the agent was known.
Compounds. The drugs and investigational agents: ipatasertib (NSC767898), abemaciclib(NSC768073), selumetinib (NSC741078), trametinib (758246), adavosertib (NSC754352), everolimus (NSC733504), sapanisertib (NSC764658), vemurafenib (NSC761431), venetoclax (NSC766270), copanlisib (NSC809693), apelisib (NSC765974), palbociblib (NSC758247), vemurafenib (NSC761431), dabrafenib (NSC764134), ravoxertinib (NSC781343), BMS-387032 (NSC767048), sotorasib (NSC818433), talazoparib (NSC767125) and afursertib (NSC778305), were obtained from the National Cancer Institute (NCI) Developmental Therapeutics Program Chemical Repository. The FDA-approved anticancer drug set is available from the NCI Developmental Therapeutics Program. […] The stock solutions were prepared in dimethyl sulfoxide (DMSO, Sigma-Aldrich, St. Louis, MO, cat. D2650) at 800-fold the tested concentration and stored at -70 degrees C prior to their use. All drugs and investigational agents were tested over a range starting from a high concentration at or near the clinical Cmax and decreasing in half-log increments. If the clinical Cmax for an agent had not been determined, the highest concentration tested was 10 microM.
NCI60 Cell Culture. NCI60 cell lines were obtained from the NCI Developmental Therapeutics Program Tumor Repository. For each lot of cells, the Repository performed Applied Biosystems AmpFLSTR Identifiler testing with PCR amplification to confirm consistency with the published Identifier STR profile for each cell line. Cells were kept in continuous culture for no more than 20 passages. The optimal seeding densities for each of the cell lines at each time point assessed were determined prior to performing the concentration response studies. Briefly, the NCI60 human tumor lines were grown as monolayers in RPMI 1640 medium supplemented with 10% FBS and 2 mmol/L L-glutamine.
An additional 9 lines were from the NCI60 cell line panel including MDA-MB-231 breast carcinoma, MDA-MB-468 breast carcinoma, MCF7 breast carcinoma, Hs578T breast carcinoma, MALME-3M melanoma, SK-MEL-2 melanoma, SK-OV-3 ovarian carcinoma, DU-145 prostate carcinoma, PC-3 prostate carcinoma, all cell lines along with major genetic alterations are listed on Table 2. Pooled donor human umbilical vein endothelial cells (HUVEC, Lonza, cat. CC-2519) and human mesenchymal stem cells (hMSC, Lonza, cat. PT-2501) were purchased from Lonza (Walkersville, MD).
PDMR cell lines were grown in complete medium (DC medium): Dulbecco's modified Eagle's medium (DMEM)/F12 supplemented with 5% fetal bovine serum (FBS), 2 mM L-glutamine, 100 U/mL penicillin and 100 µg/ml streptomycin, 0.4 µg/ml hydrocortisone, 10 ng/ml epidermal growth factor (EGF) recombinant human protein, 24 µg/mL adenine, and 0.1 mg/mL primocin. During culture from frozen stock vials, PDMR cells were cultured in the same medium containing 10 µM Y-27632 (see Table 3). The PDCs were cultured in complete DMEM/F12 media without 10 microM Y-27632 dihydrochloride for at least two passages prior to the screen. The pooled donor HUVEC and hMSC were cultured in endothelial cell growth medium 2 (PromoCell, Heidelberg, Germany, cat. C-22011) and mesenchymal stem cell growth medium 2 (PromoCell, cat. C-28009), respectively. For all experiments, HUVEC and hMSC were used at passages </=5.
[…]
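Also: spheroids exposed to agents for 7 days.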
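For viability, T/C in this document: 100% = DMSO vehicle control viability.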

Cn1cnc2c(F)c(Nc3ccc(Br)cc3Cl)c(C(=O)NOCCO)cc21
viability, T/C (compound 0.00949 µM): 94% and 97.4% | viability, T/C (compound 0.03 µM): 86.6% and 73.7% | viability, T/C (compound 0.0949 µM): 85.2% and 77.9% | viability, T/C (compound 0.3 µM): 64.3% and 67.1% | viability, T/C (compound 0.949 µM): 69.9% and 51.7% | viability, T/C (compound 3 µM): 49.4% and 36.6% | IC50 (curve of compound): > 3000 nM and 1070 nM

CC(=O)c1c(C)c2cnc(Nc3ccc(N4CCNCC4)cn3)nc2n(C2CCCC2)c1=O + CC(C)NCC(C(=O)N1CCN(c2ncnc3c2C(C)CC3O)CC1)c1ccc(Cl)cc1
IC50 (curve of first compound, second compound 0.1 µM): > 300 nM | IC50 (curve of first compound, second compound 0.316 µM): 45.7 nM | IC50 (curve of first compound, second compound 1 µM): 7.23 nM | IC50 (curve of first compound, second compound 3.16 µM): 1.34 nM | IC50 (curve of first compound, second compound 10 µM): < 0.949 nM | viability, T/C (second compound 0.1 µM, first compound 0.000949 µM): 96.4% | viability, T/C (second compound 0.1 µM, first compound 0.003 µM): 101% | viability, T/C (second compound 0.1 µM, first compound 0.00949 µM): 91.2% | viability, T/C (second compound 0.1 µM, first compound 0.03 µM): 68.8% | viability, T/C (second compound 0.1 µM, first compound 0.0949 µM): 65.9% | viability, T/C (second compound 0.1 µM, first compound 0.3 µM): 55.4% | viability, T/C (second compound 0.316 µM, first compound 0.000949 µM): 81.6% | viability, T/C (second compound 0.316 µM, first compound 0.003 µM): 71.2% | viability, T/C (second compound 0.316 µM, first compound 0.00949 µM): 68.2% | viability, T/C (second compound 0.316 µM, first compound 0.03 µM): 51.8% | viability, T/C (second compound 0.316 µM, first compound 0.0949 µM): 44.1% | viability, T/C (second compound 0.316 µM, first compound 0.3 µM): 41.5% | viability, T/C (second compound 1 µM, first compound 0.000949 µM): 61.5% | viability, T/C (second compound 1 µM, first compound 0.003 µM): 57.5% | viability, T/C (second compound 1 µM, first compound 0.00949 µM): 48% | viability, T/C (second compound 1 µM, first compound 0.03 µM): 34.1% | viability, T/C (second compound 1 µM, first compound 0.0949 µM): 34.5% | viability, T/C (second compound 1 µM, first compound 0.3 µM): 31.3% | viability, T/C (second compound 3.16 µM, first compound 0.000949 µM): 51.7% | viability, T/C (second compound 3.16 µM, first compound 0.003 µM): 46.2% | viability, T/C (second compound 3.16 µM, first compound 0.00949 µM): 35.2% | viability, T/C (second compound 3.16 µM, first compound 0.03 µM): 33.4% | viability, T/C (second compound 3.16 µM, first compound 0.0949 µM): 25% | viability, T/C (second compound 3.16 µM, first compound 0.3 µM): 24.6% | viability, T/C (second compound 10 µM, first compound 0.000949 µM): 33.4% | viability, T/C (second compound 10 µM, first compound 0.003 µM): 36.7% | viability, T/C (second compound 10 µM, first compound 0.00949 µM): 28.1% | viability, T/C (second compound 10 µM, first compound 0.03 µM): 20.9% | viability, T/C (second compound 10 µM, first compound 0.0949 µM): 21.9% | viability, T/C (second compound 10 µM, first compound 0.3 µM): 21.9%
